From publication PMC12951551, “Do Amino-Oxetanes Resemble Amides? A Matched Molecular Pairs Property and Structural Comparison” (Journal of Medicinal Chemistry, 2026)
Converted amounts (≈) assume the structure as drawn.

Legend:
[1] = Shake flask LogD (SFLogD) assay; assay type: physicochemical; settings: for logD: pH = 7.4, octanol/water shake flask, average of 2 runs unless otherwise stated
Method: (§1) Permeability assay (RRCK): Ralph Russ canine kidney cells were used for permeability measurements using a cell monolayer in 96-transwell format. The detailed assay conditions have been reported previously.9 Test compounds were added to the donor wells and a buffer was added to the receiver wells to start the apical to basolateral transport assay.
(§2) Time 0 and 1.5 h incubation samples were taken for LC-MS/MS analysis. Apparent permeability (Papp) was calculated using the equation below (1), where Area is the surface area of the cell monolayer (0.0625 cm2), CD(0) is the […]

human hepatocytes = test: Human Hepatocyte (HHEP) stability assay, clearance; assay type: in vitro ADME; settings: for HHEPG clearance: human hepatocytes, 0.5 million cells/mL, 1 µM test compound
Method: Human Hepatocyte (HHEP) assay: The high throughput HHEP stability assay was performed in a 384-well format (Greiner Bio-One, Monroe, NC). The cryopreserved HHEP were thawed, and re-suspended in Williams E medium (WEM, custom formula number 91-5233EC; Invitrogen, Grand Island, NY) supplemented with HEPES and Na2CO3. The cells were counted using the Trypan Blue exclusion method. A multidrop liquid dispenser (Multidrop DW, Thermo Scientific, Waltham, MA) was used to add the HHEP suspensions to the 384-well plates. The cell plates were covered and transferred to a Cytomat 2 incubator (ThermoFisher) and Biomek i7 (Beckman Coulter, Indianapolis, IN), equipped with three 3position MéCour heat exchangers. Test compounds were diluted on the Biomek i7 with buffer (15 µL) and added to the HHEP (30 µL). The final incubation contained 0.5 million cells/mL and 1 µM test compound in 45 µL total volume containing 0.01% DMSO. The incubation was carried out at 37 °C in the Cytomat 2 incubator (relative humidity ≥ 90%, 5% CO2/95% air). At various time points (2, 4, 11, 45, 75, 120, and 240 min), the plate was pulled out from the incubator by the Biomek i7 robot and put on the MéCour heated exchanger. Samples (3 µL) were transferred to a 384-well plate containing 30 µL acetonitrile with an internal standard (IS) to quench the reaction. Water (60 µL) was added to the quenched plate to dilute the organic solvent content for LC-MS/MS analysis. The plates were centrifuged at 3000 rpm for 10 min at 4 °C, sealed and subsequently analyzed using LC-MS/MS without further transfer of the supernatant.
Propranolol (CYP2D6), midazolam (CYP3A) and triazolam (CYP3A, low clearance), naloxone (UGT2B7), carbazeran (AO), and verapamil (CYP3A, CYP2C8) were used as positive controls. For CYP inhibition study, 1 mM ABT (a pan-cYP inhibitor) was pre-incubated with HHEP for 30 minutes at 37 °C before adding test compounds. Values are n >3 unless […]
as §1, §2

[2] = Permeability assay (RRCK); assay type: in vitro ADME, canine; settings: dog, MDCK, apical to basolateral, average of 2 runs, footnote b = only one replicate
Kinetic solubility = assay type: physicochemical; settings: for solubility at 24 h: aqueous pH buffer, aqueous buffer, kinetic from dmso stock, 37 °C, 600 µM start; for Kinetic solubility, in words: across acidic, neutral, and basic conditions, compared with benzamide counterpart
Method: Aqueous buffer preparation: pH 3: 50 µL of 1N hydrochloric acid was added to 500 mL of deionized water. The solution was titrated with 1N hydrochloric acid to pH 3, and back titrated with 1N sodium hydroxide. pH 7.4: 100 mM sodium phosphate buffer is made by adding 56.4 g of dibasic sodium phosphate and 10.3 g of monobasic sodium phosphate to 4 L of deionized water. 250 µL of 100 mM sodium phosphate buffer was diluted with 250 µL of deionized water. The solution was titrated with 1N hydrochloric acid to pH 7.4, and back titrated with 1N sodium hydroxide. pH 10: Fisher Scientific pH 10 buffer (SB116-500) containing potassium hydroxide, potassium carbonate, and potassium […]
pH 12.8: 30 mL of 1N NaOH was added to 200 mL of deionized water. The solution was titrated with 1N sodium hydroxide to pH 12.8 and back titrated with 1N hydrochloric acid.
Kinetic solubility: Samples were diluted to 600 µM in the appropriate pH buffer (pH: 3, 7.4, 10) and to 600 µM (assumed 100% solubility) in a DMSO standard. Samples were mixed thoroughly and incubated at 37 °C for 24 h.
Following incubation, pH samples were transferred to a […] PVDF (low binding) and filtered to remove any precipitate. The filtrate was collected and analyzed via MS/MS. The ratio of MS response (DMSO:pH) is taken and multiplied by the initial 600 µM concentration to determine the concentration (solubility) of the samples in pH buffers. […]
as §1, §2

[3] = Experimental pKaH (amine basicity); assay type: physicochemical
From the text: The influence of basicity is an ongoing rationale for inclusion of the oxetanes in drug candidates, providing the potential to attenuate off-target effects including hERG channel inhibition. […] As comparison against the benzamide analogue is not possible, we instead looked at the head-to-head comparison between amino-oxetane 4a and benzylamine 18 (Figure ).

Compound	logD [1]	HHEPG clearance (human hepatocytes) [μL min^−1 million^−1]	Papp at 1.5 h [2] [×10⁻⁶ cm/s]	solubility at 24 h (Kinetic solubility; pH 3) [µM]	solubility at 24 h (Kinetic solubility; pH 7.4) [µM]	solubility at 24 h (Kinetic solubility; pH 10) [µM]	Kinetic solubility, in words (Kinetic solubility)	Change in SFlogD of the carbonyl-to-oxetane replacement ([1]; pH 7.4, amino-oxetane versus matched benzamide)	pKa ([3]; Table S2)	pKaH ([3]; text and Figure 6)	HHEPG clearance, in words (human hepatocytes; compared with benzamide counterpart)
COc1ccc(C2(N(C3CC3)C3CCN(C(C)=O)CC3)COC2)cc1 [5a, 1-(4-(Cyclopropyl(3-(4-Methoxyphenyl)Oxetan-3-yl)Amino)Piperidin-1-yl)Ethan-1-One]	1.68	38	38.8	299 (≈ 103 µg/mL)	223 (≈ 76.8 µg/mL)	195 (≈ 67.2 µg/mL)					
O=C(c1ccc(-c2cnc(C(F)(F)F)nc2)cc1)N1CCOCC1 [11b, Morpholino(4-(2-(Trifluoromethyl)Pyrimidin-5-yl)Phenyl)Methanone]	1.31	< 2	43.2								
COc1ccc(C2(NCc3ccccc3)COC2)cc1 [2a, N-Benzyl-3-(4-Methoxyphenyl)Oxetan-3-Amine]	2.49	62	36.5	521 (≈ 140 µg/mL)	359 (≈ 96.7 µg/mL)	285 (≈ 76.8 µg/mL)	higher solubility				
COc1ccc(C2(N[C@@H](C)C(=O)N(C)C)COC2)cc1 [3a, (S)-2-((3-(4-Methoxyphenyl)Oxetan-3-yl)Amino)-N,N-Dimethylpropanamide]	0.418	< 3	27.3	464 (≈ 129 µg/mL)	472 (≈ 131 µg/mL)	458 (≈ 127 µg/mL)	solubility comparable to their analogous benzamides	−0.59			
COc1ccc(C(=O)Nc2ccc3c(c2)OC(F)(F)O3)cc1 [7b, N-(2,2-Difluorobenzo[d][1,3]dioxol-5-yl)-4-Methoxybenzamide]	3.81		28.3	< 0.1	< 0.1	< 0.1					
COc1ccc(C(=O)N2CCOCC2)cc1 [4b, (4-Methoxyphenyl)(Morpholino)Methanone]	0.823	< 3	48.3	461 (≈ 102 µg/mL)	574 (≈ 127 µg/mL)	465 (≈ 103 µg/mL)					
COc1ccc(C(=O)Nc2ccc(OC)nc2)cc1 [8b, 4-Methoxy-N-(6-Methoxypyridin-3-yl)Benzamide]	2.49	13	20.9	50 (≈ 12.9 µg/mL)	31 (≈ 8.01 µg/mL)	24 (≈ 6.2 µg/mL)					
O=C(c1ccc(S(=O)(=O)c2ccccc2)cc1)N1CCOCC1 [10b, Morpholino(4-(Phenylsulfonyl)Phenyl)Methanone]	1.11	< 2	37.8								
COc1ccc(C2(Nc3ccc(NC(C)=O)cc3)COC2)cc1 [6a, N-(4-((3-(4-Methoxyphenyl)Oxetan-3-yl)Amino)Phenyl)Acetamide]		112		509 (≈ 159 µg/mL)	505 (≈ 158 µg/mL)	500 (≈ 156 µg/mL)	higher solubility				
O=C(c1ccc(N2CCOCC2)cc1)N1CCOCC1 [12b, 4-Morpholinonebenzene-4-Yl-Morpholine]	0.444	< 2	36.4								
COc1ccc(C2(Nc3ccc(OC)nc3)COC2)cc1 [8a, 6-Methoxy-N-(3-(4-Methoxyphenyl)Oxetan-3-yl)Pyridin-3-Amine]	2.54	42	37.2	412 (≈ 118 µg/mL)	358 (≈ 103 µg/mL)	326 (≈ 93.3 µg/mL)	higher solubility				
COc1ccc(CN2CCOCC2)cc1 [compound 18, 4-(4-Methoxybenzyl)Morpholine]									7.25	7.25	
O=C(c1ccc(Oc2ccccn2)cc1)N1CCOCC1 [9b, Morpholino(4-(Pyridin-2-yloxy)Phenyl)Methanone]	1.08	< 2	47.2								
COc1ccc(C2(Nc3ccc4c(c3)OC(F)(F)O4)COC2)cc1 [7a, 2,2-Difluoro-N-(3-(4-Methoxyphenyl)Oxetan-3-yl)Benzo[d][1,3]dioxol-5-Amine]				7 (≈ 2.35 µg/mL)	8 (≈ 2.68 µg/mL)	12 (≈ 4.02 µg/mL)					significantly higher clearance than its benzamide counterpart
COc1ccc(C(=O)NC(C)C(=O)N(C)C)cc1 (stereo not shown) [3b, N-(1-(Dimethylamino)-1-Oxopropan-2-yl)-4-Methoxybenzamide]	1	< 2	32.2	461 (≈ 115 µg/mL)	574 (≈ 144 µg/mL)	465 (≈ 116 µg/mL)					
c1ccc(Oc2ccc(C3(N4CCOCC4)COC3)cc2)nc1 [9a, 4-(3-(4-(Pyridin-2-yloxy)Phenyl)Oxetan-3-yl)Morpholine]	1.32	13	43.6								
c1cc(C2(N3CCOCC3)COC2)ccc1N1CCOCC1 [12a, 4-(4-(3-Morpholinooxetan-3-yl)Phenyl)Morpholine]	0.331	11	39.3								
COc1ccc(C(=O)NCC23C[C@H]4C[C@@H](C2)C[C@@H](C3)C4)cc1 [1b, N-(((3R,5R,7R)-Adamantan-1-yl)Methyl)-4-Methoxybenzamide]	3.83		32.7	< 0.1	< 0.1	< 0.8					
COc1ccc(C(=O)NCc2ccccc2)cc1 [2b, N-Benzyl-4-Methoxybenzamide]	2.74	30	38.1	114 (≈ 27.5 µg/mL)	91 (≈ 22 µg/mL)	76 (≈ 18.3 µg/mL)					
COc1ccc(C(=O)N(C2CC2)C2CCN(C(C)=O)CC2)cc1 [5b, N-(1-Acetylpiperidin-4-yl)-N-Cyclopropyl-4-Methoxybenzamide]	1.25	< 4	31.7	465 (≈ 147 µg/mL)	467 (≈ 148 µg/mL)	299 (≈ 94.6 µg/mL)					
COc1ccc(C(=O)Nc2ccc(NC(C)=O)cc2)cc1 [6b, N-(4-Acetamidophenyl)-4-Methoxybenzamide]	1.92	57	14	13 (≈ 3.7 µg/mL)	10 (≈ 2.84 µg/mL)	8 (≈ 2.27 µg/mL)					
FC(F)(F)c1ncc(-c2ccc(C3(N4CCOCC4)COC3)cc2)cn1 [11a, 4-(3-(4-(2-(Trifluoromethyl)Pyrimidin-5-yl)Phenyl)Oxetan-3-yl)Morpholine]	1.66	< 2	< 36.1								
